# According to patent US20210346524A1, “FUSOGENIC LIPOSOMES FOR SELECTIVE IMAGING OF TUMOR CELLS” (APA- Advanced Technologies Ltd., priority 2018, published 2021):
# Assay: Solubilization of fluorophore in aqueous hydration solution for liposome encapsulation
# Type: physicochemical
smiles,measurement,value
"CC1(C)C(/C=C/C=C/C=C/C=C2\N(CCCCS(=O)(=O)O)c3ccc4ccccc4c3C2(C)C)=[N+](CCCCS(=O)(=O)[O-])c2ccc3ccccc3c21 [ICG, indocyanine green]",behaviour in phosphate buffered saline (PBS),creates aggregates
